ChEMBL document CHEMBL1131350, “Design of novel tripeptides with macrophage migration-enhancing activity” (1998)
Peptide text beside a SMILES is read from it. * marks the point of attachment. Fmoc = O=C(OCC1c2ccccc2-c2ccccc21)*; Cbz = O=C(OCc1ccccc1)*; Boc = CC(C)(C)OC(=O)*

Tested on: not listed separately
Assay: Macrophage migration-enhancing activity evaluated using rabbit alveolar macrophages at 1E-7M
Assay type: functional, Oryctolagus cuniculus

SMILES	MI
NC(=O)[C@@H](Cc1c[nH]cn1)NC(=O)[C@H](Cc1ccccc1)NC(=O)[C@H](Cc1ccccc1)NC(=O)OCc1ccccc1	-1
NC(=O)[C@H](Cc1c[nH]cn1)NC(=O)[C@H](Cc1ccccc1)NC(=O)[C@@H](Cc1ccccc1)NC(=O)OCc1ccccc1	2
NC(=O)[C@H](Cc1c[nH]cn1)NC(=O)[C@H](Cc1ccccc1)NC(=O)[C@H](Cc1ccccc1)NC(=O)OCc1ccccc1	94
NC(=O)C(Cc1c[nH]cn1)NC(=O)[C@@H](Cc1ccccc1)NC(=O)OCc1ccccc1 (some centres undefined)	18
NC(=O)[C@H](Cc1c[nH]cn1)NC(=O)[C@@H](Cc1ccccc1)NC(=O)[C@H](Cc1ccccc1)NC(=O)OCc1ccccc1	0
NC(=O)[C@H](Cc1c[nH]cn1)NC(=O)[C@H](Cc1ccccc1)NC(=O)[C@H](Cc1ccccc1)N1C(=O)c2ccccc2C1=O	-1
CC(=O)N[C@@H](Cc1ccccc1)C(=O)N[C@@H](Cc1ccccc1)C(=O)N[C@@H](Cc1c[nH]cn1)C(N)=O (Ac-Phe-Phe-His-NH2)	61
CC(C)(C)OC(=O)N[C@@H](Cc1ccccc1)C(=O)N[C@@H](Cc1ccccc1)C(=O)N[C@@H](Cc1c[nH]cn1)C(N)=O (Boc-Phe-Phe-His-NH2)	96
C[C@H](NC(=O)OCc1ccccc1)C(=O)N[C@@H](Cc1ccccc1)C(=O)N[C@@H](Cc1c[nH]cn1)C(N)=O (Cbz-Ala-Phe-His-NH2)	2
NC(=O)[C@H](Cc1c[nH]cn1)NC(=O)[C@H](Cc1ccccc1)NC(=O)[C@H](Cc1ccccc1)NC(=O)[C@H](Cc1ccccc1)NC(=O)OCc1ccccc1 (Cbz-FFFH-NH2)	15
NC(=O)[C@H](Cc1ccccc1)NC(=O)[C@H](Cc1ccccc1)NC(=O)[C@H](Cc1c[nH]cn1)NC(=O)OCc1ccccc1 (Cbz-His-Phe-Phe-NH2)	1
CC(C)C[C@H](NC(=O)OCc1ccccc1)C(=O)N[C@@H](Cc1ccccc1)C(=O)N[C@@H](Cc1c[nH]cn1)C(N)=O (Cbz-Leu-Phe-His-NH2)	4
NC(=O)[C@H](Cc1ccccc1)NC(=O)[C@H](Cc1c[nH]cn1)NC(=O)[C@H](Cc1ccccc1)NC(=O)OCc1ccccc1 (Cbz-Phe-His-Phe-NH2)	-1
CC(C)C[C@H](NC(=O)[C@H](Cc1ccccc1)NC(=O)OCc1ccccc1)C(=O)N[C@@H](Cc1c[nH]cn1)C(N)=O (Cbz-Phe-Leu-His-NH2)	4
N=C(N)NCCC[C@H](NC(=O)[C@H](Cc1ccccc1)NC(=O)[C@H](Cc1ccccc1)NC(=O)OCc1ccccc1)C(N)=O (Cbz-Phe-Phe-Arg-NH2)	8
CCOC(=O)[C@H](Cc1c[nH]cn1)NC(=O)[C@H](Cc1ccccc1)NC(=O)[C@H](Cc1ccccc1)NC(=O)OCc1ccccc1 (Cbz-Phe-Phe-His-OEt)	95
O=C(N[C@@H](Cc1ccccc1)C(=O)N[C@@H](Cc1ccccc1)C(=O)N[C@@H](Cc1c[nH]cn1)C(=O)O)OCc1ccccc1 (Cbz-Phe-Phe-His-OH)	-6
COC(=O)[C@H](Cc1c[nH]cn1)NC(=O)[C@H](Cc1ccccc1)NC(=O)[C@H](Cc1ccccc1)NC(=O)OCc1ccccc1 (Cbz-Phe-Phe-His-OMe)	97
NCCCC[C@H](NC(=O)[C@H](Cc1ccccc1)NC(=O)[C@H](Cc1ccccc1)NC(=O)OCc1ccccc1)C(N)=O (Cbz-Phe-Phe-Lys-NH2)	3
NC(=O)[C@H](Cc1c[nH]cn1)NC(=O)[C@H](Cc1c[nH]c2ccccc12)NC(=O)[C@H](Cc1ccccc1)NC(=O)OCc1ccccc1 (Cbz-Phe-Trp-His-NH2)	7
NC(=O)[C@H](Cc1c[nH]cn1)NC(=O)[C@H](Cc1ccc(O)cc1)NC(=O)[C@H](Cc1ccccc1)NC(=O)OCc1ccccc1 (Cbz-Phe-Tyr-His-NH2)	-23
NC(=O)[C@H](Cc1c[nH]cn1)NC(=O)[C@H](Cc1ccccc1)NC(=O)[C@H](Cc1c[nH]c2ccccc12)NC(=O)OCc1ccccc1 (Cbz-Trp-Phe-His-NH2)	14
NC(=O)[C@H](Cc1c[nH]cn1)NC(=O)[C@H](Cc1c[nH]c2ccccc12)NC(=O)[C@H](Cc1c[nH]c2ccccc12)NC(=O)OCc1ccccc1 (Cbz-Trp-Trp-His-NH2)	4
NC(=O)[C@H](Cc1c[nH]cn1)NC(=O)[C@H](Cc1ccccc1)NC(=O)[C@H](Cc1ccc(O)cc1)NC(=O)OCc1ccccc1 (Cbz-Tyr-Phe-His-NH2)	-28
NC(=O)[C@H](Cc1c[nH]cn1)NC(=O)[C@H](Cc1ccc(O)cc1)NC(=O)[C@H](Cc1ccc(O)cc1)NC(=O)OCc1ccccc1 (Cbz-Tyr-Tyr-His-NH2)	-25
CC(C)[C@H](NC(=O)OCc1ccccc1)C(=O)N[C@@H](Cc1ccccc1)C(=O)N[C@@H](Cc1c[nH]cn1)C(N)=O (Cbz-Val-Phe-His-NH2)	3
NC(=O)[C@H](Cc1c[nH]cn1)NC(=O)[C@H](Cc1ccccc1)NC(=O)[C@H](Cc1ccccc1)NC(=O)OCC1c2ccccc2-c2ccccc21 (Fmoc-Phe-Phe-His-NH2)	122
NC(=O)[C@H](Cc1c[nH]cn1)NC(=O)[C@H](Cc1ccccc1)NC(=O)[C@@H](N)Cc1ccccc1 (H-Phe-Phe-His-NH2)	7

Species: Oryctolagus cuniculus
Assay: Macrophage migration-enhancing activity was evaluated using rabbit alveolar macrophages expressed as Migration Index (MI)
Assay type: functional

SMILES	MI
Clc1ccc(C2=N[C@H](c3ccccc3)[C@H](c3ccccc3)N2)cc1	140
